Consider six compounds from patent US20100126386A1, “RADIATION-CURABLE COATING SUBSTANCES” (Basf Aktiengesellschaft, priority 2004, published 2010).

A short description of the series: Testing of the NIR sensitizers in photoinitiator mixtures (exposure of thin coats with halogen lamp). The note with it: 0.5% by weight NIR sensitizer and 1.5% by weight boronate salt X in the paint base materials. The method, then:
The two aforementioned paint base materials were admixed with 0.5% by weight of each NIR sensitizer and 1.5% by weight of the boronate salt X^− and the mixtures were stirred intensively. Thin coats (coat thickness approximately 50 μm) were produced with the resulting mixtures between two glass plates, using spacer sheets. These coats were exposed using a 250 W halogen lamp (distance approximately 15 cm) for 1 minute.
Turning to `CCN1/C(=C/C=C2\CCCC(/C=C/C3=[N+](CC)c4ccc(C(F)(F)F)cc4C3(C)C)=C2Cl)C(C)(C)c2cc(C(F)(F)F)ccc21` [Compound A11], the “dissolution of the NIR sensitizer in the paint base material” value (“dissolution of the NIR sensitizer” below) was “fully dissolved”.
Regarding `CN1\C(=C/C=C/C=C/C=C/C2=[N+](C)c3ccc(Cl)cc3C2(C)C)C(C)(C)c2cc(Cl)ccc21` [Compound A7], the “dissolution of the NIR sensitizer” value is recorded as “fully dissolved”.
For the compound `CCN1/C(=C/C=C2\CCCC(/C=C/C3=[N+](CC)c4ccc(C#N)cc4C3(C)C)=C2Cl)C(C)(C)c2cc(C#N)ccc21` [Compound A12], the “dissolution of the NIR sensitizer” value was “fully dissolved”.
Consider `CCN1/C(=C/C=C2\CCCC(/C=C/C3=[N+](CC)c4ccc(C(F)(F)F)cc4C3(C)C)=C2Cl)C(C)(C)c2cc(C(F)(F)F)ccc21` [Compound B11], for which the “dissolution of the NIR sensitizer” value is listed as “not completely dissolved”.
For the compound `CN1\C(=C/C=C/C=C/C=C/C2=[N+](C)c3ccc(Cl)cc3C2(C)C)C(C)(C)c2cc(Cl)ccc21` [Compound B7], the “dissolution of the NIR sensitizer” value is reported as “not completely dissolved”.
In the case of `CCN1/C(=C/C=C2\CCCC(/C=C/C3=[N+](CC)c4ccc(C#N)cc4C3(C)C)=C2Cl)C(C)(C)c2cc(C#N)ccc21` [Compound B12] it was “not completely dissolved”.
